Measurements as given in US11140318B2, “Laser endoscope device” (Mie University, priority 2016, dated 2021).
Where two headings read alike, the source gives them in different places.

How the values were obtained:
cancer tissue = details: mouse, in vivo
Source text: (§1) The finding 3 will be described with reference to a case where a cell morphology in a living body is imaged under the multiphoton laser microscope (FV1000MPE manufactured by Olympus Corporation) while changing the focal point position and a plurality of captured images are cut in a predetermined position to create a cross-sectional image (tomographic image). A laboratory mouse was used as the living body.
(§2) As the stain for staining the cell group, both the stain containing curcumin and the stain containing Acid Red (red #106) were used. The staining period was set at 5 minutes. The staining period is the period for which the stain is caused to be in contact with the cell group and the dye of the stain is allowed to penetrate into the cells themselves or the gaps between the cells.

healthy mucosa tissue = details: mouse, in vivo
Source text: as §1, §2

Structure (SMILES): CCN(CC)c1ccc2c(-c3ccc(S(=O)(=O)[O-])cc3S(=O)(=O)[O-])c3ccc(=[N+](CC)CC)cc-3oc2c1.[Na+] [Acid Red dye, Acid Red]
- depth to which the tissue is stained (cancer tissue): about 40 μm
- depth to which the tissue is stained (healthy mucosa tissue): about 70 μm

Structure (SMILES): COc1cc(/C=C/C(=O)CC(=O)/C=C/c2ccc(O)c(OC)c2)ccc1O [curcumin dye, curcumin]
- depth to which the tissue is stained (cancer tissue; 5 min): about 40 μm
- depth to which the tissue is stained (healthy mucosa tissue; 5 min): about 20 μm
